{
  "source": "patent EP0883624B1",
  "about": "“TETRAETHER LIPIDS AND LIPOSOMES CONTAINING SAID LIPIDS, AND USE OF THE SAME” (Humatrix AG, priority 1996, dated 1997)",
  "assay": "Capacitance of a black lipid membrane",
  "format": "physicochemical",
  "settings": "Porengröße von 0,8 mm",
  "text": "Das Überspannen von Poren mit einer Lipidschicht ermöglicht nicht nur Einsatz solcher Systeme bei Separations- und Transportvorgängen (Dialyse, Umkehrosmose etc.), sondern auch im Bereich von Piezo- und Pyroelektrik, Mikrokondensatortechnik, nicht-linearer Optik und Biosensorik. Die Kapazität einer stabilen Black-Lipid-Membran aus TEL ist bei einer Porengröße von 0,8 mm 0,744 µF/cm^2.",
  "data": [
    {"substance": "2,3,2',3'-Tetra-O-dibiphytanyl-di-sn-glycerol-1'-β-gulosyl-1-phosphoryl-3\"-sn-glycerols [TEL]", "values": [
      {"measurement": "Kapazität einer stabilen Black-Lipid-Membran", "value": "0,744 µF/cm^2"}
    ]}
  ]
}
